Experimental data as given in patent US6620828B2, “Thiazole compounds and pharmaceutical compositions for inhibiting protein kinases and methods for their use” (Agouron Pharmaceuticals, Inc., priority 1999, dated 2003).

test system: human umbilical vein endothelial cells (HUVEC); experiment: HUVEC proliferation assay; format: cell-based; conditions: Homo sapiens, HUVEC, 10 nM; crude combinatorial urea library; read-out: Inhibition of HUVEC Proliferation % inhibition @ 10 nM
Method: HUVEC Proliferation Assay
This assay determines the ability of a test compound to inhibit the growth factor-stimulated proliferation of human umbilical vein endothelial cells (“HUVEC”). HUVEC cells (passage 3-4, Clonetics, Corp.) were thawed into EGM2 culture medium (Clonetics Corp) in T75 flasks. Fresh EGM2 medium was added to the flasks 24 hours later. Four or five days later, cells were exposed to another culture medium (F12K medium supplemented with 10% fetal bovine serum (FBS), 60 μg/ml endothelial cell growth supplement (ECGS), and 0.1 mg/ml heparin). Exponentially-growing HUVEC cells were used in experiments thereafter. Ten to twelve thousand HUVEC cells were plated in 96-well dishes in 100 μl of rich, culture medium (described above). The cells were allowed to attach for 24 hours in this medium. The medium was then removed by aspiration and 105 μl of starvation media (F12K+1% FBS) was added to each well. After 24 hours, 15 μl of test agent dissolved in 1% DMSO in starvation medium or this vehicle alone was added into each treatment well; the final DMSO concentration was 0.1%. One hour later, 30 μl of VEGF (30 ng/ml) in starvation media was added to all wells except those containing untreated controls; the final VEGF concentration was 6 ng/ml. Cellular proliferation was quantified 72 hours later by MTT dye reduction, at which time cells were exposed for 4 hours MTT (Promega Corp.). Dye reduction was stopped by addition of a stop solution (Promega Corp.) and absorbance at 595 λ was determined on a 96-well spectrophotometer plate reader.
IC50 values were calculated by curve-fitting the response of A^595 to various concentrations of the test agent; typically, seven concentrations separated by 0.5 log were employed, with triplicate wells at each concentration. For screening compound library plates, one or two concentrations (one well per concentration) were employed, and the % inhibition was calculated by the following formula:
% inhibition=(control−test) divided by (control−starvation) […]
control=A^595 when VEGF is present without test agent test=A^595 when VEGF is present with test agent starvation=A^595 when VEGF and test agent are both absent.

SMILES	inhibition at 0.01 µM [%]
COc1cccc(C(=O)Nc2cccc(-c3csc(-c4sc(NC(=O)NCCCN(C)c5ccccc5)nc4N)n3)c2)c1	17
COc1cccc(C(=O)Nc2cccc(-c3csc(-c4sc(NC(=O)NCc5ccncc5)nc4N)n3)c2)c1	-2
COc1cccc(C(=O)Nc2cccc(-c3csc(-c4sc(NC(=O)NCCN5CCCCC5)nc4N)n3)c2)c1	22
COc1cccc(C(=O)Nc2cccc(-c3csc(-c4sc(NC(=O)NCCc5ccncc5)nc4N)n3)c2)c1	-5
COc1cccc(C(=O)Nc2cccc(-c3csc(-c4sc(NC(=O)NC5CCN(Cc6ccccc6)CC5)nc4N)n3)c2)c1	-22
CCN(CC)CCNC(=O)Nc1nc(N)c(-c2nc(-c3cccc(NC(=O)c4cccc(OC)c4)c3)cs2)s1	-38
COc1cccc(C(=O)Nc2cccc(-c3csc(-c4sc(NC(=O)NCC5(O)CCCCC5)nc4N)n3)c2)c1	4
COc1cccc(C(=O)Nc2cccc(-c3csc(-c4sc(NC(=O)NCCCN5CCCCC5)nc4N)n3)c2)c1	15
COc1cccc(C(=O)Nc2cccc(-c3csc(-c4sc(NC(=O)NCCCN5CCOCC5)nc4N)n3)c2)c1	19
COc1cccc(C(=O)Nc2cccc(-c3csc(-c4sc(NC(=O)NCCN5CCOCC5)nc4N)n3)c2)c1	1
COc1cccc(C(=O)Nc2cccc(-c3csc(-c4sc(NC(=O)NCCO)nc4N)n3)c2)c1	38

same assay, conditions: Homo sapiens, HUVEC, 50 nM; crude combinatorial urea library; read-out: Inhibition of HUVEC Proliferation % inhibition @ 50 nM

SMILES	inhibition at 0.05 µM [%]
COc1cccc(C(=O)Nc2cccc(-c3csc(-c4sc(NC(=O)NCCCN(C)c5ccccc5)nc4N)n3)c2)c1	98
COc1cccc(C(=O)Nc2cccc(-c3csc(-c4sc(NC(=O)NCc5ccncc5)nc4N)n3)c2)c1	116
COc1cccc(C(=O)Nc2cccc(-c3csc(-c4sc(NC(=O)NCCN5CCCCC5)nc4N)n3)c2)c1	25
COc1cccc(C(=O)Nc2cccc(-c3csc(-c4sc(NC(=O)NCCc5ccncc5)nc4N)n3)c2)c1	97
COc1cccc(C(=O)Nc2cccc(-c3csc(-c4sc(NC(=O)NC5CCN(Cc6ccccc6)CC5)nc4N)n3)c2)c1	23
CCN(CC)CCNC(=O)Nc1nc(N)c(-c2nc(-c3cccc(NC(=O)c4cccc(OC)c4)c3)cs2)s1	39
COc1cccc(C(=O)Nc2cccc(-c3csc(-c4sc(NC(=O)NCC5(O)CCCCC5)nc4N)n3)c2)c1	2
COc1cccc(C(=O)Nc2cccc(-c3csc(-c4sc(NC(=O)NCCCN5CCCCC5)nc4N)n3)c2)c1	49
COc1cccc(C(=O)Nc2cccc(-c3csc(-c4sc(NC(=O)NCCCN5CCOCC5)nc4N)n3)c2)c1	83
COc1cccc(C(=O)Nc2cccc(-c3csc(-c4sc(NC(=O)NCCN5CCOCC5)nc4N)n3)c2)c1	121

same assay, conditions: Homo sapiens, HUVEC, Inhibition of HUVEC Proliferation; 50 nM; crude combinatorial urea library; read-out: % inhibition @ 50 nM

SMILES	inhibition at 0.05 µM [%]
COc1cccc(C(=O)Nc2cc(-c3csc(-c4sc(NC(=O)NC(C)CN(C)C)nc4N)n3)c(F)cc2F)c1 (centres unmarked)	64
COCC(C)NC(=O)Nc1nc(N)c(-c2nc(-c3cc(NC(=O)c4cccc(OC)c4)c(F)cc3F)cs2)s1 (centres unmarked) [drawing 704]	93
CCN(CC)CCCNC(=O)Nc1nc(N)c(-c2nc(-c3cc(NC(=O)c4cccc(OC)c4)c(F)cc3F)cs2)s1	89
CNC(=O)CNC(=O)Nc1nc(N)c(-c2nc(-c3cc(NC(=O)c4cccc(OC)c4)c(F)cc3F)cs2)s1	73
COc1cccc(C(=O)Nc2cc(-c3csc(-c4sc(NC(=O)NC(CO)CO)nc4N)n3)c(F)cc2F)c1	76
COc1cccc(C(=O)Nc2cc(-c3csc(-c4sc(NC(=O)NCCc5ccccn5)nc4N)n3)c(F)cc2F)c1	105

same assay, conditions: Homo sapiens, HUVEC, Inhibition of HUVEC Proliferation; 50 nM; crude combinatorial urea library; read-out: Inhibition @ 50 nM

SMILES	inhibition at 0.05 µM [%]
COc1cccc(C(=O)Nc2cc(-c3noc(-c4sc(NC(=O)NCCCCN(C)C)nc4N)n3)c(F)cc2F)c1	-3
COc1cccc(C(=O)Nc2cc(-c3noc(-c4sc(NC(=O)NCCC(=O)O)nc4N)n3)c(F)cc2F)c1	56

same assay, conditions: Homo sapiens, HUVEC, Table I screening results; 150 nM; crude combinatorial amide library

SMILES	inhibition at 0.15 µM [%]
COc1cc(Nc2nc(N)c(-c3nc(-c4cccc(NC(=O)c5ccc6ccccc6n5)c4)cs3)s2)cc(OC)c1OC	-11
COc1ccccc1/C=C\C(=O)Nc1cccc(-c2csc(-c3sc(Nc4cc(OC)c(OC)c(OC)c4)nc3N)n2)c1	53
COc1ccc(CCC(=O)Nc2cccc(-c3csc(-c4sc(Nc5cc(OC)c(OC)c(OC)c5)nc4N)n3)c2)cc1OC	23
COc1cc(Nc2nc(N)c(-c3nc(-c4cccc(NC(=O)Cc5ccc6c(c5)OCO6)c4)cs3)s2)cc(OC)c1OC	46
COc1cc(Nc2nc(N)c(-c3nc(-c4cccc(NC(=O)Cc5ccc6ccccc6c5)c4)cs3)s2)cc(OC)c1OC	-7
COC(=O)c1ccc(C(=O)Nc2cccc(-c3csc(-c4sc(Nc5cc(OC)c(OC)c(OC)c5)nc4N)n3)c2)nc1	20
